The results in this text go back to patent US12173018B2, “Penicillin-binding protein inhibitors” (priority 2018, dated 2024).

In brackets after ≈: the same amount, converted by molar mass. Where two headings read alike, the source gives them in different places.

One assay deals with P. aeruginosa ATCC 35151. Description: microbe, parasite or virus in culture. The assay is classed as cell-based. Conditions: Pseudomonas aeruginosa, ATCC35151; hyper-permeable P. aeruginosa ATCC 35151; read-out: MIC P. aeruginosa ATCC 35151. The procedure, abridged:
(§1)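 CLSI broth microdilution in cation-supplemented Mueller-Hinton broth; 2-fold compound dilutions inoculated at 5×10^5 CFU/mL from a 3-5 h log-phase culture. Plates incubated 16-20 hours at 37° C; MIC read visually as lowest concentration with no growth.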

Assay [1] concerns P. aeruginosa (ΔmexAB-oprM). Put plainly: microbe, parasite or virus in culture. It is filed as cell-based. Conditions: Pseudomonas aeruginosa, read-out: MIC P. aeruginosa ΔmexAB-OprM. The procedure, abridged: as §1
Another assay addresses E. coli PBP3 (Escherichia coli (strain K12), UniProt P0AD68). Put plainly: E. coli PBP3 Bocillin-FL fluorescence polarization competition binding assay. An outline of the steps:
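This was a fluorescence polarization competition with fluorescent penicillin Bocillin-FL (0.1 μM final), read at 490/520 nm for 60 min immediately after its addition. The buffer was Hepes pH 8.0 with 300 mM NaCl and 5% glycerol, containing 1.5 μM PBP and test inhibitor up to 1000 μM. Potency is expressed as EC50 for reducing probe binding.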

Another assay concerns N. gonorrhoeae FA1090. Description: Liquid broth MIC, N. gonorrhoeae FA1090. The assay is classed as cell-based. Conditions: Neisseria gonorrhoeae; N. gonorrhoeae FA1090, liquid broth; read-out: Minimum Inhibitory Concentration, N. gonorrhoeae FA1090. An outline of the steps: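 MIC taken by eye as the lowest well lacking growth after 40-42 h at 36° C under 5% CO2. Compounds were 2-fold serially diluted; the starting inoculum of 5×10^5 CFU/mL came from direct colony suspensions grown on Kellogg's-supplemented GC agar.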

In another assay the test system is A. baumannii ATCC 19606. Put plainly: Broth microdilution MIC, A. baumannii ATCC 19606. It is filed as cell-based. Conditions: Acinetobacter baumannii, ATCC19606; A. baumannii ATCC 19606, broth microdilution; read-out: MIC A. baumannii ATCC 19606. The procedure, abridged: as §1
(Broth dilution looks for growth in wells or tubes with falling amounts of substance.)

The next assay relates to P. aeruginosa PAO1. Description: Broth microdilution MIC, P. aeruginosa PAO1. Conditions: Pseudomonas aeruginosa; P. aeruginosa PAO1, broth microdilution; read-out: MIC P. aeruginosa PAO1. It is filed as cell-based. The procedure, abridged:
as §1

Setting [2] is: fluorescence polarization competition binding with Bocillin-FL, read-out: E. coli K12 PBP3 Potency.

Sequence of E. coli PBP3 (P0AD68 whole entry): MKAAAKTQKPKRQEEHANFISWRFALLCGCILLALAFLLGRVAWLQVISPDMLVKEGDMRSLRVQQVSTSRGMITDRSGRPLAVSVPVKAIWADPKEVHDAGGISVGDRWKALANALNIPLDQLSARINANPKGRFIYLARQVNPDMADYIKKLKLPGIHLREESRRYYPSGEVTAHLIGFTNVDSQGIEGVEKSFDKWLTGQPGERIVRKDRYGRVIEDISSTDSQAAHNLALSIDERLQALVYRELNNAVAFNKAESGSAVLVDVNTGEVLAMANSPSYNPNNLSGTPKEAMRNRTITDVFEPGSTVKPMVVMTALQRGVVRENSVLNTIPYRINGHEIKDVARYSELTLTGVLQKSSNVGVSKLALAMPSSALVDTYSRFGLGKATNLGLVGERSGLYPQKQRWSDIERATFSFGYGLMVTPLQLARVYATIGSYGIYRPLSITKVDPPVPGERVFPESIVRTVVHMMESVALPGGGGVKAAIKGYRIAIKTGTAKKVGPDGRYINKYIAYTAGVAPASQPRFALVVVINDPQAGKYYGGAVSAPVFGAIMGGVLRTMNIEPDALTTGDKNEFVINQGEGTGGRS

On to `CCN1CCN(C(=O)NC(C(=O)N[C@H]2Cc3cccc(C(=O)O)c3OB2O)c2ccc(O)c(O)c2F)C(=O)C1=O` (some centres unmarked) [Example 70], for which the MIC in the assay on P. aeruginosa ATCC 35151 is < 0.25 µg/mL; in assay [1] it was 0.5 to 1 µg/mL; with N. gonorrhoeae FA1090 it was < 0.125 µg/mL; in the assay on A. baumannii ATCC 19606, 0.5 to 1 µg/mL; with P. aeruginosa PAO1 it was 8 to 16 µg/mL. For the same compound, the EC50 at E. coli PBP3 (setting [2]) is < 30 µM.

`O=C(O)c1cccc2c1OB(O)[C@@H](NC(=O)C(NC(=O)N1CCN(CCF)C(=O)C1=O)c1ccc(O)c(O)c1Cl)C2` (stereo partly drawn) [Example 71, (3R)-3-(2-(2-chloro-3,4-dihydroxyphenyl)-2-(4-(2-fluoroethyl)-2,3-dioxopiperazine-1-carboxamido)acetamido)-2-hydroxy-3,4-dihydro-2H-benzo[e][1,2]oxaborinine-8-carboxylic acid]: the MIC in the assay with P. aeruginosa ATCC 35151 was 0.5 to 1 µg/mL; in assay [1], 2 to 4 µg/mL; in the assay with A. baumannii ATCC 19606 it was 0.5 to 1 µg/mL; in the assay with P. aeruginosa PAO1 it was 32 to 64 µg/mL. Further, on E. coli PBP3 (setting [2]), the EC50 is < 30 µM.

As to `CCN1CCN(C(=O)NC(C(=O)N[C@H]2Cc3ccc(F)c(C(=O)O)c3OB2O)c2ccc(O)c(O)c2Cl)C(=O)C1=O` (stereo partly drawn) [Example 124, (3R)-3-(2-(2-chloro-3,4-dihydroxyphenyl)-2-(4-ethyl-2,3-dioxopiperazine-1-carboxamido)acetamido)-7-fluoro-2-hydroxy-3,4-dihydro-2H-benzo[e][1,2]oxaborinine-8-carboxylic acid], the MIC is < 0.25 µg/mL in the assay on P. aeruginosa ATCC 35151; < 0.25 µg/mL in assay [1]; 1 to 2 µg/mL (≈ 1.69 to 3.37 µM) with N. gonorrhoeae FA1090; 0.5 to 1 µg/mL in the assay on A. baumannii ATCC 19606; 0.5 to 1 µg/mL in the assay on P. aeruginosa PAO1. In addition, on E. coli PBP3, the EC50 was 30 to 500 µM.

Consider `CCCN1CCN(C(=O)NC(C(=O)N[C@H]2Cc3ccc(F)c(C(=O)O)c3OB2O)c2ccc(O)c(O)c2Cl)C(=O)C1=O` (some centres unmarked) [Example 125], for which the MIC in the assay with P. aeruginosa ATCC 35151 was < 0.25 µg/mL; in assay [1], < 0.25 µg/mL; in the assay on N. gonorrhoeae FA1090, 1 to 2 µg/mL (≈ 1.65 to 3.3 µM); in the assay on A. baumannii ATCC 19606, < 0.25 µg/mL; in the assay on P. aeruginosa PAO1, 0.5 to 1 µg/mL. For the same compound, on E. coli PBP3, the EC50 is 30 to 500 µM.

With `CCN1CCN(C(=O)NC(C(=O)N[C@H]2Cc3ccc(F)c(C(=O)O)c3OB2O)c2ccc(O)c(O)c2F)C(=O)C1=O` (stereo partly drawn) [Example 149, (3R)-3-(2-(4-ethyl-2,3-dioxopiperazine-1-carboxamido)-2-(2-fluoro-3,4-dihydroxyphenyl)acetamido)-7-fluoro-2-hydroxy-3,4-dihydro-2H-benzo[e][1,2]oxaborinine-8-carboxylic acid], the MIC is < 0.25 µg/mL with P. aeruginosa ATCC 35151; < 0.25 µg/mL in assay [1]; 0.25 to 0.5 µg/mL (≈ 0.434 to 0.868 µM) in the assay on N. gonorrhoeae FA1090; 8 to 16 µg/mL with A. baumannii ATCC 19606; 2 to 4 µg/mL in the assay with P. aeruginosa PAO1. The compound also had an EC50 at E. coli PBP3 of 30 to 500 µM.

With `CCN1CCN(C(=O)NC(C(=O)N[C@H]2Cc3cccc(C(=O)O)c3OB2O)c2ncc(O)cc2Cl)C(=O)C1=O` (stereo partly drawn) [Example 150, (3R)-3-(2-(4-ethyl-2,3-dioxopiperazine-1-carboxamido)-2-(3-chloro-5-hydroxypyridin-2-yl)acetamido)-2-hydroxy-3,4-dihydro-2H-benzo[e][1,2]oxaborinine-8-carboxylic acid], the MIC is 2 to 4 µg/mL in the assay on P. aeruginosa ATCC 35151; 32 to 64 µg/mL in assay [1]; 0.25 to 0.5 µg/mL (≈ 0.447 to 0.893 µM) with N. gonorrhoeae FA1090; > 128 µg/mL in the assay with A. baumannii ATCC 19606; > 128 µg/mL with P. aeruginosa PAO1. Further, the EC50 at E. coli PBP3 (setting [2]) is < 30 µM.

With `CCN1CCN(C(=O)NC(C(=O)N[C@H]2Cc3ccc(F)c(C(=O)O)c3OB2O)c2ncc(O)cc2Cl)C(=O)C1=O` (stereo partly drawn) [Example 151, (3R)-3-(2-(3-chloro-5-hydroxypyridin-2-yl)-2-(4-ethyl-2,3-dioxopiperazine-1-carboxamido)acetamido)-7-fluoro-2-hydroxy-3,4-dihydro-2H-benzo[e][1,2]oxaborinine-8-carboxylic acid], the MIC with P. aeruginosa ATCC 35151 is < 0.25 µg/mL; in assay [1], 8 to 16 µg/mL; with N. gonorrhoeae FA1090, 0.25 to 0.5 µg/mL (≈ 0.433 to 0.865 µM); with A. baumannii ATCC 19606, > 128 µg/mL; with P. aeruginosa PAO1 it was > 128 µg/mL. The EC50 on E. coli PBP3 (setting [2]) is < 30 µM.

With `CCN1CCN(C(=O)N[C@@H](C(=O)N[C@H]2Cc3ccc(F)c(C(=O)O)c3OB2O)c2ccc(O)c(F)c2)C(=O)C1=O` [Example 161, (R)-3-((R)-2-(4-ethyl-2,3-dioxopiperazine-1-carboxamido)-2-(3-fluoro-4-hydroxyphenyl)acetamido)-7-fluoro-2-hydroxy-3,4-dihydro-2H-benzo[e][1,2]oxaborinine-8-carboxylic acid], the MIC in the assay with P. aeruginosa ATCC 35151 is < 0.25 µg/mL; in assay [1], 8 to 16 µg/mL; in the assay with N. gonorrhoeae FA1090 it was < 0.125 µg/mL; in the assay on A. baumannii ATCC 19606, > 128 µg/mL; in the assay with P. aeruginosa PAO1, > 128 µg/mL. Further, the EC50 on E. coli PBP3 (setting [2]) is < 30 µM.

In the case of `CCN1CCN(C(=O)N[C@@H](C(=O)N[C@H]2Cc3cccc(C(=O)O)c3OB2O)c2ncc(O)cc2F)C(=O)C1=O` [Example 177, (R)-3-((R)-2-(4-ethyl-2,3-dioxopiperazine-1-carboxamido)-2-(3-fluoro-5-hydroxypyridin-2-yl)acetamido)-2-hydroxy-3,4-dihydro-2H-benzo[e][1,2]oxaborinine-8-carboxylic acid], the MIC was 0.5 to 1 µg/mL in the assay on P. aeruginosa ATCC 35151; 2 to 4 µg/mL in assay [1]; < 0.125 µg/mL in the assay on N. gonorrhoeae FA1090; > 128 µg/mL in the assay on A. baumannii ATCC 19606; > 128 µg/mL in the assay on P. aeruginosa PAO1. In addition, the EC50 at E. coli PBP3 (setting [2]) is < 30 µM.

Take `CCN1CCN(C(=O)NC(C(=O)N[C@H]2Cc3ccc(F)c(C(=O)O)c3OB2O)c2ccc(S(N)(=O)=O)cc2)C(=O)C1=O` (stereo partly drawn) [Example 181, (3R)-3-(2-(4-ethyl-2,3-dioxopiperazine-1-carboxamido)-2-(4-sulfamoylphenyl)acetamido)-7-fluoro-2-hydroxy-3,4-dihydro-2H-benzo[e][1,2]oxaborinine-8-carboxylic acid]: the MIC was 0.5 to 1 µg/mL in the assay on P. aeruginosa ATCC 35151; 8 to 16 µg/mL in assay [1]; 1 to 2 µg/mL (≈ 1.65 to 3.3 µM) in the assay on N. gonorrhoeae FA1090; > 128 µg/mL in the assay on A. baumannii ATCC 19606; > 128 µg/mL with P. aeruginosa PAO1. On E. coli PBP3, this compound came in with an EC50 of 30 to 500 µM.

Turning to `NS(=O)(=O)c1ccc(C(NC(=O)N2CCN(CCF)C(=O)C2=O)C(=O)N[C@H]2Cc3ccc(F)c(C(=O)O)c3OB2O)cc1` (stereo partly drawn) [Example 182, (3R)-7-fluoro-3-(2-(4-(2-fluoroethyl)-2,3-dioxopiperazine-1-carboxamido)-2-(4-sulfamoylphenyl)acetamido)-2-hydroxy-3,4-dihydro-2H-benzo[e][1,2]oxaborinine-8-carboxylic acid], the MIC in the assay on P. aeruginosa ATCC 35151 is 0.5 to 1 µg/mL; in assay [1], 8 to 16 µg/mL; in the assay with N. gonorrhoeae FA1090 it was 1 to 2 µg/mL (≈ 1.6 to 3.21 µM); in the assay with A. baumannii ATCC 19606, > 128 µg/mL; in the assay with P. aeruginosa PAO1, > 128 µg/mL. The EC50 at E. coli PBP3 was in the range of 30 to 500 µM.

For the compound `O=C(O)c1c(F)ccc2c1OB(O)[C@@H](NC(=O)C(NC(=O)N1CCN(CCF)C(=O)C1=O)c1ncc(O)cc1F)C2` (stereo partly drawn) [Example 183, (3R)-7-fluoro-3-(2-(3-fluoro-5-hydroxypyridin-2-yl)-2-(4-(2-fluoroethyl)-2,3-dioxopiperazine-1-carboxamido)acetamido)-2-hydroxy-3,4-dihydro-2H-benzo[e][1,2]oxaborinine-8-carboxylic acid], the MIC with P. aeruginosa ATCC 35151 is < 0.25 µg/mL; in assay [1] it was 32 to 64 µg/mL; in the assay with N. gonorrhoeae FA1090, 0.25 to 0.5 µg/mL (≈ 0.432 to 0.863 µM); with A. baumannii ATCC 19606, > 128 µg/mL; in the assay with P. aeruginosa PAO1 it was > 128 µg/mL. Further, the EC50 on E. coli PBP3 (setting [2]) is < 30 µM.

Turning to `CCN1CCN(C(=O)N[C@H](C(=O)N[C@H]2Cc3ccc(F)c(C(=O)O)c3OB2O)c2ccc(O)c(O)c2Cl)C(=O)C1=O` [Example 188, (R)-3-((S)-2-(2-chloro-3,4-dihydroxyphenyl)-2-(4-ethyl-2,3-dioxopiperazine-1-carboxamido)acetamido)-7-fluoro-2-hydroxy-3,4-dihydro-2H-benzo[e][1,2]oxaborinine-8-carboxylic acid], the MIC lay in the range of 0.5 to 1 µg/mL in the assay on P. aeruginosa ATCC 35151; 0.5 to 1 µg/mL in assay [1]; 4 to 8 µg/mL (≈ 6.75 to 13.5 µM) in the assay with N. gonorrhoeae FA1090; 32 to 64 µg/mL in the assay on A. baumannii ATCC 19606; 8 to 16 µg/mL in the assay on P. aeruginosa PAO1. For the same compound, at E. coli PBP3, the EC50 lay within 30 to 500 µM.

Regarding `CCN1CCN(C(=O)N[C@@H](C(=O)N[C@H]2Cc3ccc(F)c(C(=O)O)c3OB2O)c2ccc(O)c(O)c2Cl)C(=O)C1=O` [Example 189, (R)-3-((R)-2-(2-chloro-3,4-dihydroxyphenyl)-2-(4-ethyl-2,3-dioxopiperazine-1-carboxamido)acetamido)-7-fluoro-2-hydroxy-3,4-dihydro-2H-benzo[e][1,2]oxaborinine-8-carboxylic acid], the MIC was < 0.25 µg/mL in the assay with P. aeruginosa ATCC 35151; < 0.25 µg/mL in assay [1]; 0.25 to 0.5 µg/mL (≈ 0.422 to 0.844 µM) in the assay on N. gonorrhoeae FA1090; < 0.25 µg/mL in the assay on A. baumannii ATCC 19606; < 0.25 µg/mL with P. aeruginosa PAO1. At E. coli PBP3 (setting [2]), the EC50 is < 30 µM.
